Assay results from PMC6382696, “Drug Repurposing: The Anthelmintics Niclosamide and Nitazoxanide Are Potent TMEM16A Antagonists That Fully Bronchodilate Airways” (Frontiers in Pharmacology, 2019).

Tests used:
Format in all cases: cell-based
hTMEM16A (abc) = target: T1, hTMEM16A (abc) (Homo sapiens, UniProt Q5XXA6, DEL476-501); test: IonWorks Barracuda perforated patch clamp, ionomycin-activated TMEM16A inward current; conditions: 10 μM ionomycin, Vhold −30 mV
T1 sequence (Q5XXA6 with tags, fused parts or gaps isoform Q5XXA6-5 DEL539-564): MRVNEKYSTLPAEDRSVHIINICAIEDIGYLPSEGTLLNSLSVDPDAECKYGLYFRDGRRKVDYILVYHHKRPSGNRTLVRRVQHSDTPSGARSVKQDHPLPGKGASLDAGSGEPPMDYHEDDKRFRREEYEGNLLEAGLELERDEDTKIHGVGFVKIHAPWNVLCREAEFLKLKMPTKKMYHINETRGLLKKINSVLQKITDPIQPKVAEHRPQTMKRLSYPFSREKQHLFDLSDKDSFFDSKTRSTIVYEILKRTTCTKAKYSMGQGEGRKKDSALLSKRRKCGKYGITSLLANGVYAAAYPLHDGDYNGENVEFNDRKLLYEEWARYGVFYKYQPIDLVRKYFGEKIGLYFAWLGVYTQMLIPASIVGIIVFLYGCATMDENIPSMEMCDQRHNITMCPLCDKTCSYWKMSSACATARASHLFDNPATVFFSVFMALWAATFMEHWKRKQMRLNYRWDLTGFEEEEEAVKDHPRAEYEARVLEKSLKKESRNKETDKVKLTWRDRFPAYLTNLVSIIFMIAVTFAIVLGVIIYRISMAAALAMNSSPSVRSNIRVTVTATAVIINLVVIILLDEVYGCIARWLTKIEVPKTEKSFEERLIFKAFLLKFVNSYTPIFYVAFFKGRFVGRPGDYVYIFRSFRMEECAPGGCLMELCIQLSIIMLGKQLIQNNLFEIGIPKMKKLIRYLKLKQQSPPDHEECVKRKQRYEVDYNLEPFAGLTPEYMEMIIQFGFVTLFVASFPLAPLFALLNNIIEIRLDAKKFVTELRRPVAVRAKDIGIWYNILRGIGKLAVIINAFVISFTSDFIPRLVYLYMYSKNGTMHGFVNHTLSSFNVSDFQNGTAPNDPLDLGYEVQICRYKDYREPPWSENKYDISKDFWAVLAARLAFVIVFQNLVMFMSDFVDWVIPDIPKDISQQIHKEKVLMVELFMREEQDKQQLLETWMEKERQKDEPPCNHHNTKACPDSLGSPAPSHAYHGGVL
Source text: HEK293 cells stably expressing the human TMEM16A (abc) variant and CHO cells expressing the human CFTR gene were from ChanTest. The IonWorks Barracuda (IWB) procedure and data provided are from outsourced studies performed at ChanTest (Charles River Discovery, Cleveland, OH, United States) who were blinded as to the identity of the test articles or compounds provided by Amgen. As a control, benchmark inhibitors CFTRinh-172, GlyH-101 and benzbromarone were included amongst the blinded compounds submitted and performed as expected.
For IonWorks Barracuda studies on TMEM16A compounds, in brief eight test article concentrations were applied to naïve cells (n = 4, where n = the number of replicate wells/concentration) via steel needles of a 384-channel pipettor. Each application consists of addition of 20 μl of 2X concentrated test article solution to the total 40 μl final volume of the extracellular well of the Population Patch ClampTM (PPC) planar electrode. This addition is followed by mixing (one time) of the PPC well content. Duration of exposure to each test article concentration was at least 5 min. The electrophysiology procedure used: (a) Intracellular solution containing 50 mM CsCl, 90 mM CsF, 5 mM MgCl2, 1 mM EGTA, 10 mM HEPES, adjusted to pH 7.2 with CsOH; (b) Amphotericin B for patch perforation, where 30 mg/ml stock solution of amphotericin B in DMSO is added to internal solution to final concentration of 33.3 μg/ml; (c) Extracellular solution containing HEPES-buffered physiological saline (HBPS): 137 mM NaCl, 4 mM KCl, 1.8 mM CaCl2, 1 mM MgCl2, 10 mM HEPES, 10 mM glucose, adjusted to pH 7.4 with NaOH; and (d) Ionomycin stimulation of chloride currents where 10 μM ionomycin is added to all test solutions including vehicle and positive controls. […] After establishment of a whole-cell configuration via patch perforation (∼7–10 min exposure to amphotericin B), membrane currents were recorded using the on-board patch clamp amplifiers. […]

[1] = system: human bronchial smooth muscle cells; test: Histamine-induced depolarization of human bronchial smooth muscle cells (FLIPR membrane potential); conditions: donor 199524, 1 M histamine (so in the source), read-out: EC50 inhibition of histamine-induced depolarization (converted)
primary human ASM cells [2] = test: Eact-induced calcium flux in primary human ASM cells; conditions: Eact 10 M (so in the source), read-out: IC50 block of Eact calcium flux
Description: (§1) 1.1 Measuring antagonist effects on bronchial smooth muscle cell (BSMC) pro-contractile calcium flux.
(§2) Human BSMCs were obtained from Lonza, resuspended, cultured and serum starved for 24 hours as described for the histamine membrane potential assay. Compounds and dilutions were prepared in same manner, except they were serially diluted in Assay Buffer (2 mM CaCl2, 1 mM MgCl2, 4.5 mM KCl, 155 mM NaCl, 5 mM HEPES, 10 mM glucose, pH7.4) to 4X the final concentration. A Calcium Indicator Working Solution (10 ml) was prepared by adding 1ml BD PBX Signal Enhancer (Cat# 51 -9006254) and 10 µl of BD Calcium Indicator (BD Cat# 850000 resuspended in 100% DMSO) to 9 ml Assay Buffer. Following serum starvation of the BSMCs, culture media was aspirated off and 50µl of Calcium Indicator Working Solution was added t o each well of microtiter plate. Twenty-five microliters of the 4X serially diluted compounds were then added and cells were incubated with compounds for 30 minutes at room temperature. Twenty -five microliters of a 4X histamine or methacholine solution (where 1X reflects EC 80-EC100 concentration from earlier validation of aliquot of cells from same donor) was then added and fluorescence changes were measured by a FLIPR-Tetra or internal FlashFluor instrument. In some experiments the TMEM16A opener, Eact, was used in place of histamine or methacholine.

primary human ASM cells [3] = test: Methacholine-induced calcium flux in primary human ASM cells; conditions: methacholine 10 M (so in the source), read-out: IC50 block of methacholine calcium flux
Description: as §1, §2

Row | Structure (SMILES) | effect on ionomycin-activated inward current at −100 mV, perforated patch clamp (hTMEM16A (abc)) | EC50 [1] [µM] | IC50 (primary human ASM cells [2]) [µM] | IC50 (primary human ASM cells [3]) [µM]
1 | CCc1oc2ccccc2c1C(=O)c1cc(Br)c(O)c(Br)c1 [Benzbromarone] | effective in blocking | 9.9 | 2 | 7
2 | CC(C)(C)C1CCc2c(sc(NC(=O)c3ccco3)c2C(=O)O)C1 (stereo not shown) [CaCCinh-A01] |  |  | 7 | 50
3 | Oc1ccc(Cl)cc1Cc1cc(Cl)ccc1O [Dichlorophen] |  | 4.1 | 57 | 106
4 | CCc1c(C)nc(SCC(=O)Nc2nc(-c3ccc(OC)cc3)cs2)[nH]c1=O [T16Ainh-A01] |  | 3.9 | 15 | 
5 | N#Cc1c(C(F)(F)F)cc(O)n2c1nc1ccccc12 [1PBC] | robust inhibition |  |  | 
6 | O=C(O)c1cccnc1Nc1cccc(C(F)(F)F)c1 [Niflumic Acid] | inhibition (not stimulation) |  |  | 
